Test results taken from PubChem BioAssay (NCI).
“And” between values parts separate entries of the source, which are not always exact repeats. Identical values can stand only once.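 Five compound concentrations were applied to cells in 96-well plates for 48 hours; endpoints were derived by simple linear interpolation of the resulting dose-response curve. GI50 is the concentration that inhibits growth by half. The concentration for full growth arrest is given as TGI.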

Key:
Assay in all cases: NCI-60 cell line screen, 48 h
ACHN renal = tested on: ACHN renal
CAKI-1 renal = tested on: CAKI-1 renal
CCRF-CEM leukemia = tested on: CCRF-CEM leukemia
HCT-116 colon = tested on: HCT-116 colon
LOX IMVI melanoma = tested on: LOX IMVI melanoma
M14 melanoma = tested on: M14 melanoma
NCI-H226 lung = tested on: NCI-H226 lung
NCI-H23 lung = tested on: NCI-H23 lung
SK-MEL-28 melanoma = tested on: SK-MEL-28 melanoma
U251 CNS = tested on: U251 CNS

`Nc1ncnc2c1ncn2Cc1ccc(CCl)cc1` was tested, and the GI50 (ACHN renal) was 19.4 µM, the TGI (ACHN renal) was 34.8 µM and the GI50 (CAKI-1 renal) was 14.3 µM. It also gave a TGI (CAKI-1 renal) of 28.9 µM, a GI50 (CCRF-CEM leukemia) of 24.3 µM and a TGI (CCRF-CEM leukemia) greater than 100 µM. The GI50 (HCT-116 colon) was 36.2 µM, the TGI (HCT-116 colon) was greater than 100 µM and the GI50 (LOX IMVI melanoma) was 23.5 µM. The TGI (LOX IMVI melanoma) was 51.7 µM, the GI50 (M14 melanoma) was 25.2 µM and the TGI (M14 melanoma) was 60.5 µM. It also gave a GI50 (NCI-H226 lung) of 20.6 µM, a TGI (NCI-H226 lung) of 35.3 µM and a GI50 (NCI-H23 lung) of 17.5 µM. It also gave a TGI (NCI-H23 lung) of 37.6 µM, a GI50 (SK-MEL-28 melanoma) of 21.7 µM and a TGI (SK-MEL-28 melanoma) greater than 100 µM. For the same compound, the GI50 (U251 CNS) was 21.9 µM and the TGI (U251 CNS) was 40.6 µM.
Work on `COc1cc(-c2cc(-c3ccc(Nc4nc(Nc5ccc(Cl)cc5)nc(Nc5ccc(Cl)cc5)n4)cc3)no2)cc(OC)c1OC` yielded a GI50 (ACHN renal) of 14.9 µM, a TGI (ACHN renal) greater than 100 µM and a GI50 (CAKI-1 renal) of 5.53 µM. It also gave a TGI (CAKI-1 renal) greater than 100 µM, a GI50 (CCRF-CEM leukemia) of 2.16 µM and a TGI (CCRF-CEM leukemia) of 11.9 µM. For the same compound, the GI50 (HCT-116 colon) was 4.31 µM, the TGI (HCT-116 colon) was 42.9 µM and the GI50 (LOX IMVI melanoma) was 11.4 µM. It also gave a TGI (LOX IMVI melanoma) greater than 100 µM, a GI50 (M14 melanoma) of 7.11 µM and a TGI (M14 melanoma) greater than 100 µM. It also gave a GI50 (NCI-H226 lung) of 27 µM, a TGI (NCI-H226 lung) greater than 100 µM and a GI50 (NCI-H23 lung) of 18 µM. For the same compound, the TGI (NCI-H23 lung) was greater than 100 µM, the GI50 (SK-MEL-28 melanoma) was 14.4 µM and the TGI (SK-MEL-28 melanoma) was greater than 100 µM. For the same compound, the GI50 (U251 CNS) was 11.4 µM and the TGI (U251 CNS) was greater than 100 µM.
`CNC(=O)c1cc(Oc2ccc(NC(=O)Nc3ccc(Cl)c(C(F)(F)F)c3)cc2)ccn1` was tested, and the GI50 (ACHN renal) was 3.22 µM and 3.45 µM and 2.64 µM, the TGI (ACHN renal) was > 10 µM and 12 µM and 12.1 µM and the GI50 (CAKI-1 renal) was 3.21 µM and 2.01 µM and 2.91 µM. For the same compound, the TGI (CAKI-1 renal) was > 10 µM and 4.3 µM and 8.81 µM, the GI50 (CCRF-CEM leukemia) was 3.18 µM and 4.35 µM and 2.27 µM and the TGI (CCRF-CEM leukemia) was > 10 µM and > 100 µM and 16.7 µM. The GI50 (HCT-116 colon) was 1.74 µM and 1.5 µM and 1.9 µM, the TGI (HCT-116 colon) was > 10 µM and 4.21 µM and 7.48 µM and the GI50 (LOX IMVI melanoma) was 2.52 µM and 1.5 µM and 1.67 µM. For the same compound, the TGI (LOX IMVI melanoma) was > 10 µM and 3.3 µM and 4.31 µM, the GI50 (M14 melanoma) was 2.15 µM and 2.11 µM and 2.18 µM and the TGI (M14 melanoma) was 7.98 µM and 5.03 µM and 5.96 µM. For the same compound, the GI50 (NCI-H226 lung) was 1.14 µM and 2.29 µM and 2 µM, the TGI (NCI-H226 lung) was 9.38 µM and 7.14 µM and 7.27 µM and the GI50 (NCI-H23 lung) was 2.19 µM and 1.65 µM and 1.95 µM. For the same compound, the TGI (NCI-H23 lung) was 9.84 µM and 5.55 µM and 8.21 µM, the GI50 (SK-MEL-28 melanoma) was 2.42 µM and 2.59 µM and 2.63 µM and the TGI (SK-MEL-28 melanoma) was 8.45 µM and 7.23 µM and 7.5 µM. For the same compound, the GI50 (U251 CNS) was 2.84 µM and 2.05 µM and 2.14 µM and the TGI (U251 CNS) was > 10 µM and 5.82 µM and 5.94 µM.
`OC(CBr)C(O)C(O)C(O)CBr` (stereo not drawn) was tested, and the TGI (ACHN renal) was greater than 100 µM, the GI50 (CAKI-1 renal) was 9.66 µM and 44.7 µM and the TGI (CAKI-1 renal) was greater than 100 µM. The TGI (CCRF-CEM leukemia) was greater than 100 µM, the GI50 (HCT-116 colon) was 37.3 µM and > 100 µM and the TGI (HCT-116 colon) was greater than 100 µM. The TGI (LOX IMVI melanoma) was greater than 100 µM, the TGI (M14 melanoma) was greater than 100 µM and the TGI (NCI-H226 lung) was greater than 100 µM. The GI50 (NCI-H23 lung) was 12 µM and > 61.1 µM, the TGI (NCI-H23 lung) was greater than 100 µM and the TGI (SK-MEL-28 melanoma) was greater than 100 µM. The TGI (U251 CNS) was greater than 100 µM.
`S=C1NC(c2ccccc2)NC(c2ccccc2)S1` (stereo not drawn) gave a TGI (ACHN renal) greater than 100 µM, a TGI (CAKI-1 renal) greater than 100 µM and a TGI (CCRF-CEM leukemia) of 8.38 µM. The TGI (HCT-116 colon) was greater than 100 µM, the TGI (LOX IMVI melanoma) was greater than 100 µM and the TGI (M14 melanoma) was greater than 100 µM. The TGI (NCI-H226 lung) was greater than 100 µM, the TGI (NCI-H23 lung) was greater than 100 µM and the TGI (SK-MEL-28 melanoma) was greater than 100 µM. It also gave a TGI (U251 CNS) greater than 100 µM.
`C=C1CC2(CC(c3ccccc3C)OC(c3ccccc3C)C2)OC1=O` (stereo not drawn) showed a TGI (ACHN renal) of 6.06 µM, a TGI (CAKI-1 renal) of 4.26 µM and a TGI (CCRF-CEM leukemia) of 5.75 µM. For the same compound, the TGI (HCT-116 colon) was 3.21 µM, the TGI (LOX IMVI melanoma) was 3.05 µM and the TGI (M14 melanoma) was 3.02 µM. It also gave a TGI (NCI-H226 lung) of 18.7 µM, a TGI (NCI-H23 lung) of 3.9 µM and a TGI (SK-MEL-28 melanoma) of 4.27 µM. The TGI (U251 CNS) was 25.9 µM.
`CN1C(=O)CC(CC(=O)C2CCCCC2=O)CC1=O` (stereo not drawn) was tested, and the TGI (ACHN renal) was greater than 100 µM, the TGI (CAKI-1 renal) was greater than 100 µM and the TGI (CCRF-CEM leukemia) was greater than 100 µM. It also gave a TGI (HCT-116 colon) greater than 100 µM, a TGI (LOX IMVI melanoma) greater than 100 µM and a TGI (M14 melanoma) greater than 100 µM. The TGI (NCI-H226 lung) was greater than 100 µM, the TGI (NCI-H23 lung) was greater than 100 µM and the TGI (SK-MEL-28 melanoma) was greater than 100 µM. For the same compound, the TGI (U251 CNS) was greater than 100 µM.
In the case of `C=C1C(=O)O[C@H]2[C@H]1CC/C(COC(=O)NCCc1ccc(Br)cc1)=C\CC[C@@]1(C)O[C@@H]21`, the GI50 (ACHN renal) is reported as 1.32 µM, the TGI (ACHN renal) is reported as 2.78 µM and the GI50 (CAKI-1 renal) is reported as 1.42 µM. For the same compound, the TGI (CAKI-1 renal) was 2.77 µM, the GI50 (CCRF-CEM leukemia) was 0.279 µM and the TGI (CCRF-CEM leukemia) was 0.847 µM. For the same compound, the GI50 (HCT-116 colon) was 0.477 µM, the TGI (HCT-116 colon) was 1.81 µM and the GI50 (LOX IMVI melanoma) was 1.18 µM. The TGI (LOX IMVI melanoma) was 2.58 µM, the GI50 (M14 melanoma) was 1.26 µM and the TGI (M14 melanoma) was 2.73 µM. The GI50 (NCI-H226 lung) was 1.72 µM, the TGI (NCI-H226 lung) was 3.37 µM and the GI50 (NCI-H23 lung) was 1.72 µM. It also gave a TGI (NCI-H23 lung) of 3.84 µM, a GI50 (SK-MEL-28 melanoma) of 1.47 µM and a TGI (SK-MEL-28 melanoma) of 3.12 µM. The GI50 (U251 CNS) was 1.4 µM and the TGI (U251 CNS) was 2.75 µM.
For `CN1c2cccc[c]2[Sn]([CH3])([CH3])[c]2ccccc21`, the GI50 (ACHN renal) was less than 0.0155 µM, the TGI (ACHN renal) was 0.17 µM and the GI50 (CAKI-1 renal) was 0.01 µM. It also gave a TGI (CAKI-1 renal) of less than 0.0356 µM, a GI50 (CCRF-CEM leukemia) of less than 0.01 µM and a TGI (CCRF-CEM leukemia) of 0.119 µM. It also gave a GI50 (HCT-116 colon) of less than 0.0107 µM, a TGI (HCT-116 colon) of less than 0.0161 µM and a GI50 (LOX IMVI melanoma) of 0.0107 µM. It also gave a TGI (LOX IMVI melanoma) of 0.0304 µM, a GI50 (M14 melanoma) of less than 0.0148 µM and a TGI (M14 melanoma) of 0.0305 µM. It also gave a GI50 (NCI-H226 lung) of less than 0.0138 µM, a TGI (NCI-H226 lung) of 0.132 µM and a GI50 (NCI-H23 lung) of less than 0.01 µM. The TGI (NCI-H23 lung) was 0.0677 µM, the GI50 (SK-MEL-28 melanoma) was 0.113 µM and the TGI (SK-MEL-28 melanoma) was 0.303 µM. For the same compound, the GI50 (U251 CNS) was less than 0.016 µM and the TGI (U251 CNS) was 0.134 µM.
